Laboratory results as given in PubChem BioAssay AID330 (DTP/NCI, 2004).
Toxic doses and inconclusive results are not listed. How the source made its calls: active means survival T/C of 150% or more; inactive means T/C below 125% in these data.

Test system: P388 leukemia ip, CD2F1 mice, survival T/C
Experiment: NCI In Vivo Anticancer Drug Screen. Data for tumor model P388 Leukemia (intraperitoneal) in CD2F1 (CDF1) mice
Conditions: endpoint: median survival time, higher = longer survival
Procedure, shortened: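 Mice carrying the transplanted tumor received test compound or vehicle. Survival was recorded in each group, and the value is the treated-group measurement divided by that of the vehicle-treated control group.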

[1] = dose: 50.0 mg/kg/injection, schedule: Q01DX009 (ip), vehicle: saline
[2] = dose: 100.0 mg/kg/injection, schedule: Q01DX009 (ip), vehicle: saline
[3] = dose: 200.0 mg/kg/injection, schedule: Q01DX009 (ip), vehicle: saline
[4] = dose: 50.0 mg/kg/injection, schedule: Q01DX005 (ip), vehicle: saline with Tween-80
[5] = dose: 100.0 mg/kg/injection, schedule: Q01DX005 (ip), vehicle: saline with Tween-80
[6] = dose: 200.0 mg/kg/injection, schedule: Q01DX005 (ip), vehicle: saline with Tween-80
[7] = dose: 100.0 mg/kg/injection, schedule: Q01DX009 (ip), vehicle: saline with Tween-80
[8] = dose: 200.0 mg/kg/injection, schedule: Q01DX009 (ip), vehicle: saline with Tween-80
[9] = dose: 50.0 mg/kg/injection, schedule: Q01DX009 (ip), vehicle: saline with Tween-80
[10] = dose: 50.0 mg/kg/injection, schedule: Q01DX009 (ip), vehicle: Klucel (hydroxypropylcellulose) (HPC)
[11] = dose: 100.0 mg/kg/injection, schedule: Q01DX009 (ip), vehicle: Klucel (hydroxypropylcellulose) (HPC)
[12] = dose: 200.0 mg/kg/injection, schedule: Q01DX009 (ip), vehicle: Klucel (hydroxypropylcellulose) (HPC)
[13] = dose: 60.0 mg/kg/injection, schedule: Q01DX005 (ip), vehicle: saline with Tween-80
[14] = dose: 240.0 mg/kg/injection, schedule: Q01DX005 (ip), vehicle: saline with Tween-80

Measured: T/C

CNC1C(O)C2Oc3c(cc(O)c4c3C(=O)c3cc5c(c(O)c3C4=O)C(OC3OC(C)C(OC)C(C)(OC)C3OC)CC(C)(O)C5C(=O)OC)C(C)(O2)C1O (stereo not given)
inactive: dose: 3.12 mg/kg/injection, schedule: Q04DX003 (ip), vehicle: other 99 % of control | dose: 6.25 mg/kg/injection, schedule: Q04DX003 (ip), vehicle: other 115 % of control
active: dose: 12.5 mg/kg/injection, schedule: Q04DX003 (ip), vehicle: other 150 % of control | dose: 25.0 mg/kg/injection, schedule: Q04DX003 (ip), vehicle: other 160 % of control

CCOC(=O)c1ccc(NC(=O)Nc2n[nH]c(NC(=O)Nc3ccc(C(=O)OCC)cc3)n2)cc1
inactive: dose: 12.5 mg/kg/injection, schedule: Q01DX009 (ip), vehicle: distilled water + Tween-80 95 % of control | dose: 25.0 mg/kg/injection, schedule: Q01DX009 (ip), vehicle: distilled water + Tween-80 114 % of control | dose: 50.0 mg/kg/injection, schedule: Q01DX009 (ip), vehicle: distilled water + Tween-80 89 % of control | dose: 100.0 mg/kg/injection, schedule: Q01DX009 (ip), vehicle: distilled water + Tween-80 88 % of control

CCOC(=O)CSc1nnc(-c2ccc3c(c2)OCO3)o1
inactive: dose: 62.5 mg/kg/injection, schedule: Q01DX001 (ip), vehicle: Klucel (hydroxypropylcellulose) (HPC) 102 % of control | dose: 125.0 mg/kg/injection, schedule: Q01DX001 (ip), vehicle: Klucel (hydroxypropylcellulose) (HPC) 105 % of control | dose: 250.0 mg/kg/injection, schedule: Q01DX001 (ip), vehicle: Klucel (hydroxypropylcellulose) (HPC) 108 % of control

CN(C/C=C/CN(C)C(=O)Nc1ccccc1)C(=O)Nc1ccccc1
inactive: [1] 96 % of control | [2] 100 % of control | [3] 89 % of control

CONC(C)=O
inactive: dose: 60.0 mg/kg/injection, schedule: Q01DX005 (ip), vehicle: saline 98 % of control | dose: 120.0 mg/kg/injection, schedule: Q01DX005 (ip), vehicle: saline 100 % of control | dose: 240.0 mg/kg/injection, schedule: Q01DX005 (ip), vehicle: saline 100 % of control

Nc1nnc(-c2cc(=O)c3cc(Cl)ccc3o2)s1
inactive: [4] 97 % of control | [5] 100 % of control | [6] 93 % of control

Cc1ccc(S(=O)(=O)N=P(c2ccccc2)(c2ccccc2)c2ccccc2)cc1
inactive: [7] 91 % of control | [8] 95 % of control

CC(=O)C1=CN(Cc2ccccc2)C=C(C(C)C)C1
inactive: dose: 50.0 mg/kg/injection, schedule: Q04DX003 (ip), vehicle: saline 98 % of control | dose: 50.0 mg/kg/injection, schedule: Q04DX003 (ip), vehicle: suspension in saline 104 % of control | dose: 100.0 mg/kg/injection, schedule: Q04DX003 (ip), vehicle: saline 101 % of control | dose: 100.0 mg/kg/injection, schedule: Q04DX003 (ip), vehicle: suspension in saline 103 % of control | dose: 200.0 mg/kg/injection, schedule: Q04DX003 (ip), vehicle: saline 104 % of control | dose: 200.0 mg/kg/injection, schedule: Q04DX003 (ip), vehicle: suspension in saline 105 % of control

CC(=O)Oc1ccc2ccccc2c1-c1ccccn1
inactive: dose: 12.5 mg/kg/injection, schedule: Q01DX001 (ip), vehicle: saline + alcohol 101 % of control | dose: 25.0 mg/kg/injection, schedule: Q01DX001 (ip), vehicle: saline + alcohol 99 % of control | dose: 50.0 mg/kg/injection, schedule: Q01DX001 (ip), vehicle: saline + alcohol 100 % of control

CCOC(=S)SCC(=O)NC
inactive: [1] 98 % of control | [2] 107 % of control | [3] 104 % of control

CNC(=O)Oc1ccc(/C=N/Sc2cccc([N+](=O)[O-])c2)cc1
inactive: [9] 101 % of control | [7] 89 % of control

Cc1[nH]c2ccc(N(C)C)cc2c(=O)c1CN(C)C
inactive: [10] 105 % of control | [11] 108 % of control

CC1(C)C[C@H](O)[C@H]2O[C@@]2(C)C1
inactive: dose: 100.0 mg/kg/injection, schedule: Q04DX002 (ip), vehicle: saline 95 % of control | dose: 200.0 mg/kg/injection, schedule: Q04DX002 (ip), vehicle: saline 96 % of control | dose: 400.0 mg/kg/injection, schedule: Q04DX002 (ip), vehicle: saline 105 % of control

O=C(/C=C/c1ccc(Cl)c(Cl)c1)c1ccc(Cl)cc1
inactive: dose: 12.5 mg/kg/injection, schedule: Q01DX009 (ip), vehicle: saline with Tween-80 100 % of control | dose: 25.0 mg/kg/injection, schedule: Q01DX009 (ip), vehicle: saline with Tween-80 100 % of control | [9] 100 % of control

CC(C)(C)c1ccc(C(=O)Nc2ccc(S(N)(=O)=O)cc2)cc1
inactive: [10] 100 % of control | [11] 100 % of control | [12] 101 % of control

CS(=O)(=O)OCC(COS(C)(=O)=O)(COS(C)(=O)=O)COS(C)(=O)=O
inactive: [10] 93 % of control | [11] 99 % of control | [12] 94 % of control

CSc1nccc(=O)n1-c1ccccc1F
inactive: dose: 25.0 mg/kg/injection, schedule: Q04DX002 (ip), vehicle: Klucel (hydroxypropylcellulose) (HPC) 102 % of control | dose: 50.0 mg/kg/injection, schedule: Q04DX002 (ip), vehicle: Klucel (hydroxypropylcellulose) (HPC) 104 % of control | dose: 100.0 mg/kg/injection, schedule: Q04DX002 (ip), vehicle: Klucel (hydroxypropylcellulose) (HPC) 102 % of control

O=C1C=CC(=O)C=C1 (tested in a mixture with another compound)
inactive: dose: 1.0 mg/kg/injection, schedule: Q01DX009 (ip), vehicle: saline sonified 100 % of control | dose: 2.0 mg/kg/injection, schedule: Q01DX009 (ip), vehicle: saline sonified 109 % of control | dose: 3.0 mg/kg/injection, schedule: Q01DX009 (ip), vehicle: saline sonified 100 % of control | dose: 6.0 mg/kg/injection, schedule: Q01DX009 (ip), vehicle: saline sonified 100 % of control

c1ccc2c(-c3ccncc3)c3c(ccc4ccccc43)cc2c1
inactive: [4] 100 % of control | [5] 98 % of control | [6] 89 % of control

O=C(c1ccc(Cl)cc1)N1CCN(C(=O)N2CCN(C(=O)N3CCN(C(=O)c4ccc(Cl)cc4)CC3)CC2)CC1
inactive: dose: 3.75 mg/kg/injection, schedule: Q01DX005 (ip), vehicle: saline with Tween-80 99 % of control | dose: 7.5 mg/kg/injection, schedule: Q01DX005 (ip), vehicle: saline with Tween-80 99 % of control | dose: 15.0 mg/kg/injection, schedule: Q01DX005 (ip), vehicle: saline with Tween-80 100 % of control | dose: 30.0 mg/kg/injection, schedule: Q01DX005 (ip), vehicle: saline with Tween-80 89 % of control | [13] 92 % of control | [14] 89 % of control

C=C(C)CC1(C)C(=O)CCC1O (stereo not given)
inactive: [13] 104 % of control | dose: 120.0 mg/kg/injection, schedule: Q01DX005 (ip), vehicle: saline with Tween-80 102 % of control | [14] 106 % of control

CCOC(=O)NC(C#N)=C(Cl)Cl
inactive: dose: 6.25 mg/kg/injection, schedule: Q01DX009 (ip), vehicle: Klucel (hydroxypropylcellulose) (HPC) 100 % of control | dose: 12.5 mg/kg/injection, schedule: Q01DX009 (ip), vehicle: Klucel (hydroxypropylcellulose) (HPC) 100 % of control | dose: 25.0 mg/kg/injection, schedule: Q01DX009 (ip), vehicle: Klucel (hydroxypropylcellulose) (HPC) 101 % of control

S=c1s[nH]c2c1CCC2
inactive: [9] 98 % of control | [1] 105 % of control | [7] 101 % of control | [2] 110 % of control | [8] 105 % of control | [3] 120 % of control | dose: 400.0 mg/kg/injection, schedule: Q01DX009 (ip), vehicle: saline with Tween-80 95 % of control

O=C(O)CNC(=O)/C=C/c1ccc(O)c(O)c1
inactive: dose: 50.0 mg/kg/injection, schedule: Q01DX005 (ip), vehicle: Klucel (hydroxypropylcellulose) (HPC) 114 % of control | dose: 100.0 mg/kg/injection, schedule: Q01DX005 (ip), vehicle: Klucel (hydroxypropylcellulose) (HPC) 100 % of control | dose: 200.0 mg/kg/injection, schedule: Q01DX005 (ip), vehicle: Klucel (hydroxypropylcellulose) (HPC) 100 % of control

O=C(Nc1ccc(Cl)c(Cl)c1)O/N=C/c1ccncc1
inactive: dose: 50.0 mg/kg/injection, schedule: Q01DX009 (ip), vehicle: saline + alcohol 96 % of control | dose: 100.0 mg/kg/injection, schedule: Q01DX009 (ip), vehicle: saline + alcohol 89 % of control | dose: 200.0 mg/kg/injection, schedule: Q01DX009 (ip), vehicle: saline + alcohol 89 % of control
